Experimental data published in patent US7550469B2, “Heterocyclic amide derivatives and their use as dopamine D3 receptor ligands” (Aventis Pharmaceuticals Inc., priority 2001, dated 2009).
Read-outs that look alike come from different tables or passages of the source. Each block holds one molecule with its values, some of them ahead of it.

Biological target: T1, cloned human dopamine D3 receptors (Homo sapiens, UniProt P35462)
T1 construct: expressed in transfected cells; membrane homogenate
Assay: [N-Methyl-3H]Spiroperidol binding to cloned human dopamine D3 receptors (Protocol 1)
Outline: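 Radioligand displacement with [N-methyl-3H]spiroperidol used a physiological-salt Tris buffer (0.05 M, pH 7.7; NaCl 120 mM, KCl 5 mM, CaCl2 2 mM, MgCl2 1 mM) and membranes of a high-expressing stable CHO clone carrying human D3. Total ligand concentration came from measured added CPM; 0.1% ascorbic acid was optional for oxidizable compounds.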

[1] = the 15th table, read-out: D3 Ki
[2] = the 16th table, read-out: D3 Ki
[3] = the 13th table, unit inferred, read-out: D3Ki
[4] = the 19th table, read-out: D3 Ki
[5] = the 22nd table, read-out: D3 Ki

T1 sequence (P35462 whole entry): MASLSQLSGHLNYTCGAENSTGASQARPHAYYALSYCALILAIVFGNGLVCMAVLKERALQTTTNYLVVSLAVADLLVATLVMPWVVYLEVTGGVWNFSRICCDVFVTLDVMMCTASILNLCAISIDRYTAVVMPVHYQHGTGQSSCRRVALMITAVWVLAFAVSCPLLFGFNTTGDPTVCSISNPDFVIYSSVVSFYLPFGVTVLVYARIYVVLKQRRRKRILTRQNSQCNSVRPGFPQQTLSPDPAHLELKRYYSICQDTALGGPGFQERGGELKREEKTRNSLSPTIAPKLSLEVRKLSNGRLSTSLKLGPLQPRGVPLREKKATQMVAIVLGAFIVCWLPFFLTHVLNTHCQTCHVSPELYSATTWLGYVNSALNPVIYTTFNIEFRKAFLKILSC

Compound: O=C(Cc1cccs1)NCCCCN1C2CCC1CC(c1noc3ccccc13)C2 (stereo not shown) [compound 816521]
Ki [1]: 328 nM

Compound: O=C(NCCCCN1C2CCC1CC(c1noc3ccccc13)C2)c1ccccc1C(F)(F)F (stereo not shown) [compound 816522]
Ki [1]: 240 nM

Compound: O=C(NCCCCN1C2CCC1CC(c1noc3ccccc13)C2)c1ccc(Cl)cc1 (stereo not shown) [compound 816523]
Ki [1]: 165 nM

Compound: O=C(NCCCCN1C2CCC1CC(c1noc3ccccc13)C2)C1CCCCC1 (stereo not shown) [compound 816524]
Ki [1]: 357 nM

Compound: COc1ccccc1C(=O)NCCCCN1C2CCC1CC(c1noc3ccccc13)C2 (stereo not shown) [compound 816525]
Ki [1]: 148 nM

Compound: Cc1ccc(C(=O)NCCCCN2C3CCC2CC(c2noc4ccccc24)C3)cc1 (stereo not shown) [compound 816526]
Ki [1]: 375 nM

Compound: CCCCCCc1ccc(C(=O)NCCCCN2C3CCC2CC(c2noc4ccccc24)C3)cc1 (stereo not shown) [compound 816527]
Ki [1]: 64.8 nM

Compound: O=C(NCCCCN1C2CCC1CC(c1noc3ccccc13)C2)c1ccccc1 (stereo not shown) [compound 816528]
Ki [1]: 299 nM

Compound: CCCCOc1ccc(C(=O)NCCCCN2C3CCC2CC(c2noc4ccccc24)C3)cc1 (stereo not shown) [compound 816529]
Ki [1]: 42.5 nM

Compound: O=C(NCCCCN1C2CCC1CC(c1noc3ccccc13)C2)c1ccc(C(F)(F)F)cc1 (stereo not shown) [compound 816530]
Ki [1]: 110 nM

Compound: Cc1ccccc1C(=O)NCCCCN1C2CCC1CC(c1noc3ccccc13)C2 (stereo not shown) [compound 816531]
Ki [1]: 299 nM

Compound: O=C(NCCCCN1C2CCC1CC(c1noc3ccccc13)C2)c1ccc(-c2ccccc2)cc1 (stereo not shown) [compound 816532]
Ki [1]: 56.8 nM

Compound: COc1ccc(C(=O)NCCCCN2C3CCC2CC(c2noc4ccccc24)C3)cc1 (stereo not shown) [compound 816534]
Ki [1]: 149 nM

Compound: O=C(NCCCCN1C2CCC1CC(c1noc3ccccc13)C2)c1cc2ccccc2s1 (stereo not shown) [compound 816535]
Ki [1]: 66.4 nM

Compound: O=C(NCCCCN1C2CCC1CC(c1noc3ccccc13)C2)c1ccc(Br)cc1 (stereo not shown) [compound 816536]
Ki [1]: 140 nM

Compound: O=C(NCCCCN1C2CCC1CC(c1noc3ccccc13)C2)c1ccccc1[N+](=O)[O-] (stereo not shown) [compound 816537]
Ki [1]: 411 nM

Compound: O=C(NCCCCN1C2CCC1CC(c1noc3ccccc13)C2)c1cccc2ccccc12 (stereo not shown) [compound 816538]
Ki [1]: 178 nM

Compound: O=C(NCCCCN1C2CCC1CC(c1noc3ccccc13)C2)c1cccc(F)c1F (stereo not shown) [compound 816540]
Ki [1]: 225 nM

Compound: CSc1ncccc1C(=O)NCCCCN1C2CCC1CC(c1noc3ccccc13)C2 (stereo not shown) [compound 816541]
Ki [1]: 511 nM

Ki (Table 2, read-out: D3K1): 3.13 nM
Ki [2]: 3.13 nM
Compound: Nc1ccc(C(=O)NCCCCN2CCCN(c3csc4cc(F)ccc34)CC2)cc1 [compound 817258]

Ki (Table 2, read-out: D3K1): 2.93 nM
Ki [2]: 2.93 nM
Compound: Nc1cc2ccccc2cc1C(=O)NCCCCN1CCCN(c2csc3cc(F)ccc23)CC1 [compound 817259]

Ki (Table 2, read-out: D3K1): 1.89 nM
Ki [2]: 1.89 nM
Compound: O=C(NCCCCN1CCCN(c2csc3cc(F)ccc23)CC1)c1ccc2ncccc2c1 [compound 817262]

Ki (Table 2, read-out: D3K1): 331 nM
Ki [2]: 331 nM
Compound: CN(C)c1ccc(C(=O)c2ccccc2C(=O)NCCCCN2CCCN(c3csc4cc(F)ccc34)CC2)cc1 [compound 817263]

Ki (Table 2, read-out: D3K1): 6.44 nM
Ki [2]: 6.44 nM
Compound: Nc1ccc(O)cc1C(=O)NCCCCN1CCCN(c2csc3cc(F)ccc23)CC1 [compound 817264]

Ki (Table 2, read-out: D3K1): 46 nM
Ki [2]: 46 nM
Compound: NS(=O)(=O)c1cc(C(=O)NCCCCN2CCCN(c3csc4cc(F)ccc34)CC2)c(O)c2ccccc12 [compound 817265]

Ki (Table 2, read-out: D3K1): 8.73 nM
Ki [2]: 8.73 nM
Compound: O=C(NCCCCN1CCCN(c2csc3cc(F)ccc23)CC1)c1cccc2cccnc12 [compound 817266]

Ki (Table 2, read-out: D3K1): 3.03 nM
Ki [2]: 3.03 nM
Compound: CCNc1ccccc1C(=O)NCCCCN1CCCN(c2csc3cc(F)ccc23)CC1 [compound 817267]

Ki (Table 2, read-out: D3K1): 7.1 nM
Ki [2]: 7.1 nM
Compound: CN(C)c1cccc(C(=O)NCCCCN2CCCN(c3csc4cc(F)ccc34)CC2)c1 [compound 817268]

Ki (Table 2, read-out: D3K1): 4.74 nM
Ki [2]: 4.74 nM
Compound: CN(C)c1ccccc1C(=O)NCCCCN1CCCN(c2csc3cc(F)ccc23)CC1 [compound 817269]

Ki [3]: 0.448 nM
Compound: O=C(NCCCCN1CCCN(c2csc3cc(F)ccc23)CC1)c1cc2cc(O)ccc2[nH]1 [compound 817270]

Ki (Table 2, read-out: D3K1): 326 nM
Ki [2]: 326 nM
Compound: CC(C)(C)OC(=O)Cn1c(C(=O)NCCCCN2CCCN(c3csc4cc(F)ccc34)CC2)cc2ccccc21 [compound 817271]

Ki (Table 2, read-out: D3K1): 2.44 nM
Ki [2]: 2.44 nM
Compound: NS(=O)(=O)c1ccc(C(=O)NCCCCN2CCCN(c3csc4cc(F)ccc34)CC2)cc1 [compound 817276]

Ki [3]: 2.7 nM
Compound: O=C(NCCCCN1CCCN(c2csc3cc(F)ccc23)CC1)c1cccs1 [compound 822149]

Ki [3]: 6.3 nM
Compound: O=C(NCCCCN1CCCN(c2csc3cc(F)ccc23)CC1)c1ccc(Cl)cc1 [compound 822150]

Ki [3]: 6.1 nM
Compound: O=C(NCCCCN1CCCN(c2csc3cc(F)ccc23)CC1)c1cccc2ccccc12 [compound 822153]

Ki [3]: 10.8 nM
Compound: O=C(NCCCCN1CCCN(c2csc3cc(F)ccc23)CC1)c1cccc(C(F)(F)F)c1 [compound 822155]

Ki [3]: 0.67 nM
Compound: O=C(NCCCCN1CCCN(c2csc3cc(F)ccc23)CC1)c1ccc2ccccc2c1 [compound 822156]

Ki [3]: 1.1 nM
Compound: O=C(NCCCCN1CCCN(c2csc3cc(F)ccc23)CC1)c1cc2ccccc2s1 [compound 822158]

Ki [4]: 96.7 nM
Compound: O=C(Nc1cccc(CN2CCN(c3csc4cc(F)ccc34)CC2)c1)c1cccs1 [compound 822159]

Ki [4]: 163 nM
Compound: COc1cc(OC)cc(C(=O)Nc2cccc(CN3CCN(c4csc5cc(F)ccc45)CC3)c2)c1 [compound 822161]

Ki [4]: 380 nM
Compound: O=C(Nc1cccc(CN2CCN(c3csc4cc(F)ccc34)CC2)c1)c1ccc(OC(F)(F)F)cc1 [compound 822162]

Ki [4]: 167 nM
Compound: O=C(Nc1cccc(CN2CCN(c3csc4cc(F)ccc34)CC2)c1)c1cccc(F)c1 [compound 822164]

Ki [4]: 26.5 nM
Compound: COc1ccc(C(=O)Nc2cccc(CN3CCN(c4csc5cc(F)ccc45)CC3)c2)cc1OC [compound 822180]

Ki [4]: 332 nM
Compound: COc1cccc(C(=O)Nc2cccc(CN3CCN(c4csc5cc(F)ccc45)CC3)c2)c1 [compound 822181]

Ki [4]: 154 nM
Compound: Cc1ccccc1C(=O)Nc1cccc(CN2CCN(c3csc4cc(F)ccc34)CC2)c1 [compound 822183]

Ki [4]: 271 nM
Compound: O=C(Nc1cccc(CN2CCN(c3csc4cc(F)ccc34)CC2)c1)c1cnc2ccccc2n1 [compound 822184]

Ki [4]: 50.7 nM
Compound: O=C(Nc1cccc(CN2CCN(c3csc4cc(F)ccc34)CC2)c1)c1ccncc1 [compound 822185]

Ki [4]: 50.4 nM
Compound: O=C(Nc1cccc(CN2CCN(c3csc4cc(F)ccc34)CC2)c1)c1cccnc1Cl [compound 822186]

Ki [4]: 140 nM
Compound: COc1ccc(C(=O)NCc2ccccc2CN2CCN(c3csc4cc(F)ccc34)CC2)cc1OC [compound 822188]

Ki [3]: 4.7 nM
Compound: O=C(NCCCCN1CCCN(c2csc3cc(F)ccc23)CC1)c1ccccc1F [compound 822195]

Ki [3]: 5 nM
Compound: COc1ccc(C(=O)NCCCCN2CCCN(c3csc4cc(F)ccc34)CC2)cc1OC [compound 822196]

Ki [3]: 6.5 nM
Compound: COc1cccc(C(=O)NCCCCN2CCCN(c3csc4cc(F)ccc34)CC2)c1 [compound 822197]

Ki [3]: 3.8 nM
Compound: Cc1ccccc1C(=O)NCCCCN1CCCN(c2csc3cc(F)ccc23)CC1 [compound 822199]

Ki [3]: 10.6 nM
Compound: O=C(NCCCCN1CCCN(c2csc3cc(F)ccc23)CC1)c1cnc2ccccc2n1 [compound 822200]

Ki [3]: 15 nM
Compound: O=C(NCCCCN1CCCN(c2csc3cc(F)ccc23)CC1)c1cccnc1Cl [compound 822201]

Ki [4]: 221 nM
Compound: O=C(Nc1ccc(CN2CCN(c3csc4cc(F)ccc34)CC2)cc1)c1ccccc1F [compound 822207]

Compound: COc1ccc(C(=O)Nc2ccc(CN3CCN(c4csc5cc(F)ccc45)CC3)cc2)cc1OC [compound 822208]
Ki [4]: 183 nM

Ki [4]: 360 nM
Compound: COc1cccc(C(=O)Nc2ccc(CN3CCN(c4csc5cc(F)ccc45)CC3)cc2)c1 [compound 822209]

Ki [4]: 39.5 nM
Compound: O=C(Nc1ccc(CN2CCN(c3csc4cc(F)ccc34)CC2)cc1)c1ccc(-c2ccccc2)cc1 [compound 822210]

Ki [4]: 162 nM
Compound: Cc1ccccc1C(=O)Nc1ccc(CN2CCN(c3csc4cc(F)ccc34)CC2)cc1 [compound 822212]

Ki [4]: 63 nM
Compound: O=C(Nc1ccc(CN2CCN(c3csc4cc(F)ccc34)CC2)cc1)c1cccs1 [compound 822213]

Ki [5]: 174 nM
Compound: COc1ccccc1C(=O)NCCCCN1CCN(c2nn(C(=O)c3ccccc3OC)c3ccsc23)CC1 [compound 825145]

Ki [5]: 188 nM
Compound: Cc1ccccc1C(=O)NCCCCN1CCN(c2nn(C(=O)c3ccccc3C)c3ccsc23)CC1 [compound 825146]

Ki [5]: 62.7 nM
Compound: Cc1ccc(C(=O)NCCCCN2CCN(c3nn(C(=O)c4ccc(C)cc4)c4ccsc34)CC2)cc1 [compound 825147]

Ki [5]: 36.4 nM
Compound: O=C(NCCCCN1CCN(c2nn(C(=O)c3ccc(F)cc3)c3ccsc23)CC1)c1ccc(F)cc1 [compound 825148]

Ki [5]: 164 nM
Compound: O=C(NCCCCN1CCN(c2nn(C(=O)c3ccc(C(F)(F)F)cc3)c3ccsc23)CC1)c1ccc(C(F)(F)F)cc1 [compound 825149]

Ki [5]: 199 nM
Compound: O=C(NCCCCN1CCN(c2nn(C(=O)c3ccc(F)c(F)c3)c3ccsc23)CC1)c1ccc(F)c(F)c1 [compound 825150]

Ki [5]: 8.57 nM
Compound: O=C(NCCCCN1CCN(c2n[nH]c3ccsc23)CC1)c1ccc(-c2ccccc2)cc1 [compound 825153]

Ki [5]: 92.1 nM
Compound: COc1ccccc1C(=O)NCCCCN1CCN(c2n[nH]c3ccsc23)CC1 [compound 825159]

Ki [5]: 244 nM
Compound: Cc1ccccc1C(=O)NCCCCN1CCN(c2n[nH]c3ccsc23)CC1 [compound 825161]

Ki [5]: 114 nM
Compound: O=C(NCCCCN1CCN(c2n[nH]c3ccsc23)CC1)c1ccc(F)cc1 [compound 825162]

Ki [5]: 221 nM
Compound: O=C(NCCCCN1CCN(c2n[nH]c3ccsc23)CC1)c1ccc(F)c(F)c1 [compound 825163]

Ki [5]: 10.4 nM
Compound: O=C(NCCCCN1CCN(c2nn(C(=O)c3cc4ccccc4s3)c3ccsc23)CC1)c1cc2ccccc2s1 [compound 825164]
